Reference: patent US12503707B2, “Methods, plants and compositions for overcoming nutrient suppression of mycorrhizal symbiosis” (Cambridge Enterprise Limited, priority 2020, dated 2025)

Key:
[1] = test system: M. truncatula root epidermal cells; assay: Nuclear calcium imaging after CO/LCO treatment; assay type: cell-based, Medicago truncatula; conditions: lateral roots; −N−P and +N+P conditions
Protocol: For calcium analyses M. truncatula seedlings were grown on Buffered Nodulation Media (BNM) agar with 100 nM Aminoethoxyvinylglycine (AVG; Sigma-Aldrich) until lateral roots emerged (FIGS. 1A-1B). […] The lateral roots were fixed in a small chamber made on a cover glass using vacuum grease, with 500 μl of BNM buffer. The roots were then treated with COs (CO4 or CO8), LCOs (non-sulfated LCO (NS-LCO) or a LCO derived from Sinorhizobium meliloti (SmLCO)), at the concentrations indicated in FIGS. 1A-1B. Recordings were collected on an inverted epifluorescence microscope (model TE2000; Nikon). Yellow cameleon YC3.6 was excited with an 458-nm laser and imaged using emission filters 476-486 nm for CFP and 529-540 nm for YFP. The calcium images were collected every 5 seconds with 1 second exposure and analyzed using Metafluor (Molecular Devices). Calcium traces used the intensity ratio of YFP to CFP. For better visualization of calcium signals, the traces were flattened to a single axis by subtracting the values with moving average as the following formula:
[formula] Where Sf is the flattened signal, So is the original signal, and MA is the moving average of the value. For each element i, MA is calculated as:
[formula] where m is the arbitrary number of points to calculate the average, w=[m/2] and xj is the signal at point j. M. truncatula Gene Expression

[2] = test system: R. irregularis colonization of H. vulgare; assay: Mycorrhizal colonization assay with R. irregularis; assay type: in vivo, Hordeum vulgare; conditions: 0.1 μM GR24 twice a week
Protocol: FIGS. 14A-14D provide the effects of treating H. vulgare plants with a strigolactone or with both a strigolactone and a CEP peptide. […] Plants were grown under high nitrate and high phosphate (5 mM NO3^− and 0.5 mM PO4^−) and cells were treated with 10^−7 M SmLCO. The top trace represents cells without any additional treatment, the middle trace represents cells that were pre-treated with 1 μM 5-deoxystrigol, and the bottom trace represents cells that were pre-treated with 1 μM 5-deoxystrigol and 1 μM CEP3. The scale bar indicates a span of 10 minutes, and the fractions indicate the number of cells that responded over the total number of cells analyzed. FIGS. 14B-14C provide the level of mycorrhizal colonization of H. vulgare when treated with the synthetic strigolactone analog GR24 under different nutrient conditions, as determined in two separate experiments. In FIG. 14B, colonization was measured 7 weeks post inoculation, and the x-axis indicates the nutrient conditions tested, and whether the plants were treated with GR24. […] In FIG. 14C, colonization was measured 6 weeks post inoculation, and the x-axis indicates the nutrient conditions tested, and whether the plants were treated with GR24. […] In FIGS. 14B-14C, the y-axis represents the percentage of roots colonized by mycorrhizal fungi, and the shading of each bar represents the fungal structure quantified. […]

[3] = test system: M. truncatula LysM receptor-like kinase (LysM RLK) genes; assay: LysM RLK gene expression by qRT-PCR after GR24 and/or TIS108 treatment; assay type: in vivo, Medicago truncatula; conditions: BNM plates 4 days
Protocol: FIGS. 24A-24E show the effects of nutrient starvation and strigolactone and/or karrikin treatment on M. truncatula RLK gene expression levels. […] As indicated from left to right above the heat map, M. truncatula was grown under limiting nitrate (−N, 0 mM NO3^− and 3.75 mM PO4^−), limiting phosphate (−P, 5 mM NO3^− and 0.0075 mM PO4^−), or limiting nitrate and phosphate (−N−P, 0 mM NO3^− and 0.0075 mM PO4^−). The relative expression level of each condition is normalized to expression when plants were grown under replete nitrate and replete phosphate (+N+P, 5 mM NO3^− and 3.75 mM PO4^−). As indicated from left to right below the heatmap, expression was measured either 5, 10, or 15 days after germination (“DAG”). The color scale indicates the relative expression levels, with black representing the lowest expression and light grey representing the highest expression. FIGS. 24B-24E show expression of M. truncatula genes after seedlings were grown on BNM plates for 4 days, and then treated with either DMSO (mock), 0.1 μM synthetic strigolactone analog GR24, 1 μM strigolactone-biosynthesis inhibitor TIS108, or both (0.1 μM GR24 and 1 μM TIS108) for 24 hours, as indicated on the x-axis. […] In each of FIGS. 24B-24E gene expression was determined by RT-qPCR, relative expression levels is on the y-axis, and the asterisks indicate the relative level of statistical significance as determined by a Student's t-test.
Gene expression was measured by qRT-PCR (FIGS. 2A-2B). Plants were grown on modified BNM plates (described above) with 100 nM AVG for four days, the plants were then carefully transferred to liquid BNM with the appropriate nutrient concentrations along with COs, PGN, flg22 and SmLCO, at a final concentration of 10^−7 M COs, 10^−7 M flg22, 0.4 mg/ml PGN and 10^−8 M SmLCO. After incubation for 6 h, plant roots were harvested and frozen in liquid nitrogen. […] An aliquot of each total RNA sample was used to determine RNA concentration and purity assessed on the NanoDrop ND-1000 spectral photometer (Peglab, Erlangen, Germany). RNA integrity was analyzed on the 2100 Bioanalyzer using RNA 6000 Nano LabChip Kits (Agilent Technologies). […] Gene expression was determined by an ABI 7500 using a SYBR green PCR master mix (Bio-Rad). […] Expression data were analyzed from the average of threshold cycle (CT) value, using an M. truncatula endogenous Histone 2A (H2A) gene as reference and fold induction calculated for treatment of elicitors relative to treatment with DMSO. […]
Gene expression was measured by RNA-seq. […] M. truncatula RLK gene expression levels were measured by qRT-PCR (FIGS. 24B-24E), as described in Example 1.

[4] = then 24 hours, 0.1 μM GR24, 1 μM TIS108

SMILES: CC(=O)N[C@H]1[C@H](O[C@H]2[C@H](O)[C@@H](NC(C)=O)C(O)O[C@@H]2CO)O[C@H](CO)[C@@H](O[C@@H]2O[C@H](CO)[C@@H](O[C@@H]3O[C@H](CO)[C@@H](O)[C@H](O)[C@H]3NC(C)=O)[C@H](O)[C@H]2NC(C)=O)[C@@H]1O (some centres unmarked) [CO4]
- nuclear symbiotic calcium oscillations (Cells spiking) [1]: promoted nuclear symbiotic oscillations

SMILES: CC(=O)N[C@H]1[C@H](O[C@H]2[C@H](O)[C@@H](NC(C)=O)[C@H](O[C@H]3[C@H](O)[C@@H](NC(C)=O)[C@H](O[C@H]4[C@H](O)[C@@H](NC(C)=O)C(O)O[C@@H]4CO)O[C@@H]3CO)O[C@@H]2CO)O[C@H](CO)[C@@H](O[C@@H]2O[C@H](CO)[C@@H](O[C@@H]3O[C@H](CO)[C@@H](O[C@@H]4O[C@H](CO)[C@@H](O[C@@H]5O[C@H](CO)[C@@H](O)[C@H](O)[C@H]5NC(C)=O)[C@H](O)[C@H]4NC(C)=O)[C@H](O)[C@H]3NC(C)=O)[C@H](O)[C@H]2NC(C)=O)[C@@H]1O (some centres unmarked) [CO8]
- nuclear symbiotic calcium oscillations (Cells spiking) [1]: promoted nuclear symbiotic oscillations

SMILES: CC1=C[C@H](O/C=C2/C(=O)O[C@@H]3c4ccccc4C[C@H]23)OC1=O [GR24]
- promotion of mycorrhizal colonization ([2]; 7 weeks post inoculation, no inhibitory effect of high phosphate seen): could not be observed
- mycorrhizal colonization ([2]; high phosphate (500 μM) and low nitrate (0.5 mM), 6 weeks post inoculation): promoted mycorrhizal colonization
- MtKUF1 expression compared to mock treatment [3, 4]: significantly increased
- MtLYK8 expression compared to mock treatment [3, 4]: significantly increased
- MtLYK10 expression compared to mock treatment [3, 4]: significantly increased

SMILES: O=C(c1ccccc1)C(CCCCOc1ccccc1)n1cncn1 (centres unmarked) [TIS108]
- LysM RLK gene expression compared to mock treatment ([3]; then 1 μM TIS108 for 24 hours): either the same or lower
